ChEMBL document CHEMBL1142642, “Hermitamides A and B, toxic malyngamide-type natural products from the marine cyanobacterium Lyngbya majuscula” (J Nat Prod, 2000)
pIC50: −log10 of the molar value.

Tests used:
[1] = test system: Biomphalaria glabrata; assay: Molluscicidal activity against Biomphalaria glabrata at 10 ppm; format: organism-based; conditions: in vivo
[2] = Ichthyotoxicity to gold fish; format: organism-based; conditions: carassius auratus, in vivo; read-out: LD50 (the source's name)
[3] = Toxicity in Artemia salina; format: organism-based; conditions: in vivo, read-out: LD50 (the source's name)
[4] = Cytotoxicity against mouse Neuro2a cells after 24 hrs by MTT assay; format: cell-based; conditions: N2a

CCCCCCC[C@@H](C/C=C/CCC(=O)NCCc1ccccc1)OC [HERMITAMIDE A]
Activity [1]: Not Active | LC50 [2]: 19 µM | LC50 [3]: 5 µM | pIC50 [4]: 5.66

CCCCCCC[C@@H](C/C=C/CCC(=O)NCCc1c[nH]c2ccccc12)OC [HERMITAMIDE B]
Activity [1]: Not Active | LC50 [2]: 25 µM | LC50 [3]: 18 µM | pIC50 [4]: 5.26

CCCCCCC[C@@H](C/C=C/CCC(=O)N(C)C/C(=C/Cl)c1cccc(C)c1O)OC [MALYNGAMIDE M]
pIC50 [4]: < 4.70

CCCCCCC[C@@H](C/C=C/CCC(=O)N(C)C/C(=C/Cl)[C@]12O[C@H]1CC=C(C)C2=O)OC [MALYNGAMIDE N]
pIC50 [4]: 4.92
